≈ marks a conversion by molar mass, not a printed value. Where two headings read alike, the source gives them in different places.
Key:
[1] = Metabolic stability test; format: in vitro ADME; details: human liver microsomes, 37° C., 30 minutes, NADPH
Summary of the method: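 Parent compound was measured by LC/MS/MS or SPE/MS after a methanol/acetonitrile quench and reported as % remaining, with the 0 min sample set to 100%. Incubations ran 30 min at 37 °C in pH 7.4 Tris buffer containing pooled human liver microsomes at 0.5 mg protein/mL and 1 mmol/L NADPH.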

[2] = target: T1, CYP1A2 (Homo sapiens, UniProt P05177); assay: CYP inhibition test (CYP1A2); format: in vitro ADME; details: pooled human liver microsomes; 7-ethoxyresorufin O-deethylation
T1 construct: The commercially available pooled human liver microsomes are used as an enzyme resource; from tissue; host or cells: pooled human liver microsomes
T1 sequence (P05177 1-516): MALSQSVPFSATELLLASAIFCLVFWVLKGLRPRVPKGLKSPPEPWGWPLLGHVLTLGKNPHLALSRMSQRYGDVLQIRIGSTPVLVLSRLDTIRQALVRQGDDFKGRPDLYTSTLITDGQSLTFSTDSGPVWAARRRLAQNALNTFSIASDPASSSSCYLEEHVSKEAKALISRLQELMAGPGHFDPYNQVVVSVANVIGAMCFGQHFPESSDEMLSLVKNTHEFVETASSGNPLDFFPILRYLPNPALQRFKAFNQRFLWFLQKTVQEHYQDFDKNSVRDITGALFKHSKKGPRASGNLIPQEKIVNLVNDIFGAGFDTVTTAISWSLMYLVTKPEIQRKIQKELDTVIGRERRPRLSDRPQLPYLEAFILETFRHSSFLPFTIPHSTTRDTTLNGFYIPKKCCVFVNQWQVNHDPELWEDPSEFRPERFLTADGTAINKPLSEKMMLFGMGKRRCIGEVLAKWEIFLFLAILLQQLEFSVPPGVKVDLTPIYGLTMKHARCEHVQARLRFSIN
Summary of the method: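 Inhibition of CYP1A2 was measured in commercially available pooled human liver microsomes (0.2 mg protein/mL) using 7-ethoxyresorufin O-deethylation with 0.5 μmol/L ethoxyresorufin. Test compound at 1, 5, 10, 20 μmol/L in […] Hepes buffer was incubated at 37° C. after NADPH addition; methanol/acetonitrile=1/1 (v/v) stopped the reaction, and resorufin was read fluorescently.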

[3] = target: T2, CYP2C19 (Homo sapiens, UniProt P33261); assay: CYP inhibition test (CYP2C19); format: in vitro ADME; details: pooled human liver microsomes; mephenytoin 4′-hydroxylation
T2 construct: The commercially available pooled human liver microsomes are used as an enzyme resource; from tissue; host or cells: pooled human liver microsomes
Summary of the method: (§1)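 Metabolite formation was quantified by LC/MS/MS: dextrorphan (2D6, 5 μmol/L dextromethorphan), terfenadine alcohol (3A4, 1 μmol/L terfenadine), 4′-hydroxymephenytoin (2C19, 50 μmol/L S-mephenytoin) and hydroxytolbutamide (2C9, 100 μmol/L tolbutamide). Reactions used NADPH-started pooled human liver microsomes (0.2 mg/mL) at 37 °C with compound at 1–20 μmol/L (four points). IC50 was calculated by logistic model relative to the DMSO control.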

[4] = target: T3, human ether-a-go-go related gene (hERG) channel (Homo sapiens, UniProt Q12809); assay: hERG test; format: cell-based; details: % inhibition of IKr tail peak current at 3 uM; CHO cells expressing hERG
T3 construct: expressed in transfected cells; host or cells: CHO cells
Summary of the method: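 IKr was recorded from hERG-expressing CHO cells by automated whole-cell patch clamp at a holding potential of −80 mV. A −50 mV leak step was followed by a 2 s depolarization to +20 mV and a 2 s repolarization to −50 mV, when current was measured.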

[5] = Solubility test; format: physicochemical
Summary of the method: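 Dissolved concentration determined by LC/MS or SPE/MS (absolute calibration) in diluted filtrates, after 2 μL of 10 mmol/L DMSO stock was added to 198 μL JP 1st or JP 2nd fluid and equilibrated either 1 h with shaking at room temperature or 16 h standing at 25 °C.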

[6] = target: T4, CYP3A4 (Homo sapiens, UniProt P08684); assay: CYP inhibition test (CYP3A4); format: in vitro ADME; details: pooled human liver microsomes; terfenadine hydroxylation
T4 construct: The commercially available pooled human liver microsomes are used as an enzyme resource; from tissue; host or cells: pooled human liver microsomes
Summary of the method: as §1

[7] = JP 1st fluid, 25 °C, pH 1.2, simulated gastric fluid, kinetic from dmso stock, read-out: JP1
[8] = JP 2nd fluid A, 25 °C, pH 6.8, aqueous buffer, kinetic from dmso stock, read-out: JP2_μM
[9] = JP 1st fluid, pH 1.2, simulated gastric fluid, kinetic from dmso stock, read-out: JP1
[10] = solubility in JP 2nd fluid B, 1% DMSO, *2: shaken for 1 hour at room temperature, read-out: JP2_μM
[11] = JP 2nd fluid B, pH 6.8, aqueous buffer, kinetic from dmso stock, read-out: JP2_μM

T3 sequence (Q12809 whole entry): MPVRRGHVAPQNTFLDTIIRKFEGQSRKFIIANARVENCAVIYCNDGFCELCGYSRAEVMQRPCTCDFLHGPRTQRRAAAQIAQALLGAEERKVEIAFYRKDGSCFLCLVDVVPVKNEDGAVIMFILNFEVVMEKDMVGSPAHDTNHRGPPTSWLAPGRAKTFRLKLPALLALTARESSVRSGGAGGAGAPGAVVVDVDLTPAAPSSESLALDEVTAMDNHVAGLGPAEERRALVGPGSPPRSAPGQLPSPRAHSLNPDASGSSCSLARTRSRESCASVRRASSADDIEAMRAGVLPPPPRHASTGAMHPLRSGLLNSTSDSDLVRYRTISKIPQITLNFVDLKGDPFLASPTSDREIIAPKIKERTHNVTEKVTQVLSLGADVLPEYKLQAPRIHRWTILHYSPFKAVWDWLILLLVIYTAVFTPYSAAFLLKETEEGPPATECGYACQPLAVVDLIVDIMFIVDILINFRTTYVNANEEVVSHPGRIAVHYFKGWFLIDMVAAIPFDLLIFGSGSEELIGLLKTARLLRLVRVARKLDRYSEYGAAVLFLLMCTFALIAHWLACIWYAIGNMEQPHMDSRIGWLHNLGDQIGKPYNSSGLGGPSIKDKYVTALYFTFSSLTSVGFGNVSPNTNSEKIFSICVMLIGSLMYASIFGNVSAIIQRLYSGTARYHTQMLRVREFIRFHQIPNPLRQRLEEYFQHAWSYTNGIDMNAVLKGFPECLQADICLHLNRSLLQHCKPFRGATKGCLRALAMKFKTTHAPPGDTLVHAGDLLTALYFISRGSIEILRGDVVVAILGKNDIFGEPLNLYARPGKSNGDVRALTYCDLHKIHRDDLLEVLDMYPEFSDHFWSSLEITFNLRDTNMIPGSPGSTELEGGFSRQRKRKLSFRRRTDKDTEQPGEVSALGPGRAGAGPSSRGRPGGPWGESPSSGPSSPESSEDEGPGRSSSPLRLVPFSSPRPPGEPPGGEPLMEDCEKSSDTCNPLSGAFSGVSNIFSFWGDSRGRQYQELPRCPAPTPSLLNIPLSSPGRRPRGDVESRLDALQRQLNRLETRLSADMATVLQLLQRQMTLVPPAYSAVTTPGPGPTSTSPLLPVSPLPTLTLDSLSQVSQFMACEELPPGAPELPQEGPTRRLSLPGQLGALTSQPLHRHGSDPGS
T2 sequence (P33261 whole entry): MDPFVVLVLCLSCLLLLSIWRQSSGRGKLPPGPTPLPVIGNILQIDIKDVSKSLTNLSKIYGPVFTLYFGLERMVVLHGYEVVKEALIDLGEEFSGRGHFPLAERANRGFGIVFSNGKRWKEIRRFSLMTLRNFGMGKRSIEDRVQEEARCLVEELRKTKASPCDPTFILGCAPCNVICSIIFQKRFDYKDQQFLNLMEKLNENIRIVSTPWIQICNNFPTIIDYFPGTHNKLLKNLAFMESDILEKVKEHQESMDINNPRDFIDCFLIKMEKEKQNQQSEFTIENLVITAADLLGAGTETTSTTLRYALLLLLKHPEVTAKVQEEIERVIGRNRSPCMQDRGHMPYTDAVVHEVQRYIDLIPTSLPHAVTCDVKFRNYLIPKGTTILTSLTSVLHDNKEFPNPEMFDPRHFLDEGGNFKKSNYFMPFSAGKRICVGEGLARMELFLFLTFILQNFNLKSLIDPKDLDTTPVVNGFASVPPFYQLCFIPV
T4 sequence (P08684 whole entry): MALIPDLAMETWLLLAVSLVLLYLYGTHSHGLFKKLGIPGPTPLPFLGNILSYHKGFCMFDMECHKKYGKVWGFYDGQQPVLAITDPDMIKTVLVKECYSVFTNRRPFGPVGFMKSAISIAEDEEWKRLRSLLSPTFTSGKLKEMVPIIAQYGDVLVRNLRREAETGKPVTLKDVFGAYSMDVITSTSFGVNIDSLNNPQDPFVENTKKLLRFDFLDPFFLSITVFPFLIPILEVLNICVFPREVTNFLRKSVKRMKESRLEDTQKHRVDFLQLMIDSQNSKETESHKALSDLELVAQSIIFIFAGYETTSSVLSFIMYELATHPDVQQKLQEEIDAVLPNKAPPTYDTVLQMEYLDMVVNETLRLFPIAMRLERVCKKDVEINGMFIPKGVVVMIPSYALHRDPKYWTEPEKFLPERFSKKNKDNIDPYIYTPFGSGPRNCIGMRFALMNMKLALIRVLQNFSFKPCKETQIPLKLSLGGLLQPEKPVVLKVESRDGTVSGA

Compound | remaining % [1] | IC50 [2] | IC50 [3] | hERG_3 uM_% [4] | solubility kinetic at 16 h [5, 7] | solubility kinetic at 16 h [5, 8] | IC50 [6] | solubility kinetic at 1 h [5, 9] | solubility kinetic at 16 h [5, 10] | solubility kinetic at 1 h [5, 11]
C[C@H]1SC(N)=N[C@](C)(c2nc(NC(=O)c3ccc(F)cn3)ccc2F)[C@H]1F [Compound I-2] | 88% | ≥ 20 µM | ≥ 20 µM | 38.7% | 23.3 µM (≈ 9.21 µg/mL) | > 50 µM | ≥ 20 µM |  |  | 
C[C@H]1SC(N)=N[C@](C)(c2nc(NC(=O)c3cnc(OCF)cn3)ccc2F)[C@H]1F [Compound I-3] | 81.4% | ≥ 20 µM | ≥ 20 µM | 45.5% | > 50 µM | > 50 µM | ≥ 20 µM |  |  | 
C[C@]1(c2cc(NC(=O)c3ccc(F)cn3)ccc2F)N=C(N)O[C@H](CF)[C@@H]1OCC(F)(F)F [Compound I-11] | 104% | ≥ 20 µM | ≥ 20 µM | 42.5% | 42.7 µM (≈ 20.3 µg/mL) | > 50 µM | ≥ 20 µM |  |  | 
C[C@]1(c2cc(NC(=O)c3cnc(OCF)cn3)ccc2F)N=C(N)O[C@H](CF)[C@@H]1OCC(F)(F)F [Compound I-12] | 97.8% | ≥ 20 µM | ≥ 20 µM | 35.5% | 36.1 µM (≈ 18.3 µg/mL) | > 50 µM | ≥ 20 µM |  |  | 
C[C@H]1[C@@H](C(F)F)OC(N)=N[C@]1(C)c1cc(NC(=O)c2ccc(C#N)cn2)ccc1F [Compound I-31] | 85% |  | ≥ 20 µM | 27.4% | 38.8 µM (≈ 16.2 µg/mL) | > 50 µM | ≥ 20 µM |  |  | 
C[C@H]1SC(N)=N[C@](C)(c2cc(NC(=O)c3ncc(C#N)cc3Cl)ccc2F)[C@H]1F [Compound I-64] | 80.3% |  | ≥ 20 µM | 41.3% |  |  | ≥ 20 µM | > 50 µM | >50 µM | 
C[C@H]1SC(N)=N[C@](C)(c2cc(NC(=O)c3cnc(C(F)F)cn3)ccc2F)[C@H]1F [Compound I-65] | 96.5% |  | ≥ 20 µM | 28% |  |  | ≥ 20 µM | > 50 µM | >50 µM | 
CC[C@H]1SC(N)=N[C@](C)(c2cc(NC(=O)c3ccc(OCF)cn3)ccc2F)[C@H]1F [Compound I-67] | 69% | ≥ 20 µM | ≥ 20 µM | 56.5% |  |  |  | > 50 µM | >50 µM | 
CC(F)(F)[C@H]1OC(N)=N[C@](C)(c2cc(NC(=O)c3cnc(OCC(F)(F)F)cn3)ccc2F)[C@H]1F [Compound I-75] | 85.2% | ≥ 20 µM | ≥ 20 µM | 21.3% |  |  |  | > 50 µM |  | 3 µM (≈ 1.53 µg/mL)
CC(F)(F)[C@H]1OC(N)=N[C@](C)(c2cc(NC(=O)c3cnc(OCC(F)F)cn3)ccc2F)[C@H]1F [Compound I-77] | 93.1% | ≥ 20 µM | ≥ 20 µM | 44.1% |  |  |  | > 50 µM |  | 11.1 µM (≈ 5.45 µg/mL)
C[C@]1(c2cc(NC(=O)c3cnc(OCF)cn3)ccc2F)N=C(N)O[C@H](C(F)(F)C2CC2)[C@@H]1F [Compound I-82] | 96.5% | ≥ 20 µM | ≥ 20 µM | 17.5% |  |  |  | > 50 µM | >50 µM | 
COc1cnc(C(=O)Nc2ccc(F)c([C@@]3(C)N=C(N)O[C@H](C(F)(F)C4CC4)[C@@H]3F)c2)cn1 [Compound I-83] | 55.3% | ≥ 20 µM | ≥ 20 µM | 18.1% |  |  |  | > 50 µM |  | 29.6 µM (≈ 13.8 µg/mL)
C[C@H]1SC(N)=N[C@](C)(c2cc(NC(=O)c3cnc(OCC4CC4)cn3)ccc2F)[C@H]1F [Compound I-85] | 93.2% | ≥ 20 µM | ≥ 20 µM | 41.4% |  |  |  | 47.2 µM (≈ 21.1 µg/mL) |  | 0.6 µM (≈ 0.269 µg/mL)

— patent publication US20170073337A1, “DIHYDROTHIAZINE AND DIHYDROOXAZINE DERIVATIVES HAVING BACE1 INHIBITORY ACTIVITY” (Shionogi & Co., Ltd., priority 2014, published 2017)
